Reference: patent US20240376555A1, “TNRA MODIFICATION-SENSITIVE CODON TRANSLATION ASSAY COMPRISING LUMINESCENCE-BASED REPORTER SYSTEM” (priority 2021, published 2024)
“Also recorded” adds a separate entry of the source.

What was measured:
U34 enzymes [1] = assay: Dual luciferase (NanoLuc/Firefly) tRNA modification-sensitive codon translation assay in A549 cells; type: cell-based; settings: A549 human lung cells; time and concentration series; six U34 codon (xAA) repeats upstream of NanoLuc, xAG upstream of FireflyLuc; FIG. 1g-h
Experimental: (§1) In the preferred embodiment, the luminescence-based reporter system is the Nano-Glo® Dual-Luciferase® Reporter (NanoDLR™) Assay System commercially available from Promega. The medium may be removed and 40 microliters of complete cell culture medium may be added. The plate may be equilibrated at room temperature for 15 min. 40 microliters of ONE-Glo™ EX Reagent may be added for each well. The plates may be mixed and shaked and protected from light for 10 minutes. Then the luminescence may be read. 40 microliters of NanoDLR™ Stop and GloR Reagent may be freshly prepared and added to each well. The plates may be mixed and shaked and protected from light for 10 minutes. The luminescence may be read by any luminescence reader, preferably. The luminescence may be analyzed by calculating the Nanoluc/Firefly ratio.
(§2) Cells (MDA-MB231, M395 or A549) were stably transduced by the lentiviral system (pLV-Puro-hPGK) and 1:3 Mirus transfecting agent [Close et al, Mol Cell 2006].
(§3) Cells were culture in a suitable culture system in the presence of the candidate tRNA modification modulator.
(§4) Signals were detected by any luminescence reader, for example the TECAN Infinite M2000 Pro. Read time can be between 1 and 3 seconds with automatic attenuation.
(§5) No effect was seen using a construct lacking the codon repetitions (FIG. 1e). […]

U34 enzymes [2] = assay: Dual luciferase (NanoLuc/Firefly) tRNA modification-sensitive codon translation assay in M395 cells; type: cell-based; settings: M395 human primary melanoma cells; 250 nM for 24 hours; six U34 codon (xAA) repeats upstream of NanoLuc, xAG upstream of FireflyLuc; FIG. 1f
Experimental: as §1, §2, §3, §4, §5

Compound | luciferase specific signal (U34 enzymes [1]) | luciferase specific ratio (NanoLuc/Firefly) (U34 enzymes [2])
Cn1c(=O)n(-c2ccc(C(C)(C)C#N)cc2)c2c3cc(-c4cnc5ccccc5c4)ccc3ncc21 [NVP-BEZ235] | decreased luciferase specific signal in a time and concentration-dependent manner; also recorded: decreased luciferase specific signal in a time and concentration dependent manner | 
CC(C)n1nc(-c2cc3cc(O)ccc3[nH]2)c2c(N)ncnc21 [PP242] | decreased luciferase specific signal in a time and concentration-dependent manner; also recorded: decreased luciferase specific signal in a time and concentration dependent manner | 
insulin |  | increased luciferase specific ratio
